ChEMBL document CHEMBL1201862, “PubChem BioAssay data set” (2004)
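Cells were grown in 96-well plates and exposed to each compound for 48 hours at five concentrations; endpoints were interpolated linearly between bracketing concentrations, or set to the highest concentration if not reached. GI50 marks 50% less growth.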 Calls of active or inactive are those of the source. Cut-off read from the data, not from the text of the source: active = GI50 up to about 1.1 µM and inactive = higher.

How the values were obtained:
Experiment in all cases: inhibition of tumour cell growth, NCI panel, 48 h
U-251 = tested on: U-251
HCT-15 = tested on: HCT-15
NCI-H522 = tested on: NCI-H522
M14 = tested on: M14
HOP-92 = tested on: HOP-92
RXF 393 = tested on: RXF 393
CCRF-CEM = tested on: CCRF-CEM
Malme-3M = tested on: Malme-3M
A549 = tested on: A549
OVCAR-5 = tested on: OVCAR-5
SNB-19 = tested on: SNB-19
K562 = tested on: K562
TK-10 = tested on: TK-10
A498 = tested on: A498
OVCAR-4 = tested on: OVCAR-4
MDA-MB-435 = tested on: MDA-MB-435
NCI/ADR-RES = tested on: NCI/ADR-RES
Hs-578T = tested on: Hs-578T
T47D = tested on: T47D
BT-549 = tested on: BT-549

SMILES | GI50 (U-251) | GI50 (HCT-15) [µM] | GI50 (NCI-H522) | GI50 (M14) | GI50 (HOP-92) | GI50 (RXF 393) | GI50 (CCRF-CEM) | GI50 (Malme-3M) | GI50 (A549) | GI50 (OVCAR-5) | GI50 (SNB-19) | GI50 (K562) | GI50 (TK-10) | GI50 (A498) | GI50 (OVCAR-4) | GI50 (MDA-MB-435) | GI50 (NCI/ADR-RES) | GI50 (Hs-578T) | GI50 (T47D) | GI50 (BT-549)
CC(C)N(C(C)C)P(OCCC#N)OC1CC(n2cnc3c(=O)[nH]cnc32)OC1COC(=O)NCCCCCCNC(=O)OC(C)(C)c1ccc(-c2ccccc2)cc1 (centres undefined) | 21.7 µM (inactive) | 22.6 | 15.6 µM (inactive) | 18.4 µM (inactive) | 35.9 µM (inactive) | 27.7 µM (inactive) | 18.5 µM (inactive) | 32.2 µM (inactive) | 39.4 µM (inactive) | > 100 µM (inactive) | 21.7 µM (inactive) | 13.7 µM (inactive) | 24.2 µM (inactive) | > 100 µM (inactive) | 19.7 µM (inactive) | – | – | – | – | –
CC1(C)[C@@H](Cn2cc(I)c(=O)[nH]c2=O)CC[C@@]1(C)CO | > 100 µM (inactive) | > 100 | – | > 100 µM (inactive) | > 100 µM (inactive) | > 100 µM (inactive) | > 100 µM (inactive) | – | > 100 µM (inactive) | > 100 µM (inactive) | > 100 µM (inactive) | 45.1 µM (inactive) | > 100 µM (inactive) | > 100 µM (inactive) | > 100 µM (inactive) | > 100 µM (inactive) | > 100 µM (inactive) | > 100 µM (inactive) | > 100 µM (inactive) | –
COc1ccccc1NC(=O)CC(=O)n1nc(C)c(/N=N/c2ccccc2F)c1C | 58.6 µM (inactive) | > 100 | > 100 µM (inactive) | > 100 µM (inactive) | 37.7 µM (inactive) | > 57.3 µM (inactive) | > 10 µM (inactive) | > 10 µM (inactive) | 98.4 µM (inactive) | > 100 µM (inactive) | > 76 µM (inactive) | > 31.6 µM (inactive) | > 100 µM (inactive) | > 100 µM (inactive) | > 100 µM (inactive) | – | – | – | – | –
CNC(N)NC | > 100 µM (inactive) | > 100 | > 100 µM (inactive) | > 100 µM (inactive) | > 100 µM (inactive) | > 100 µM (inactive) | > 100 µM (inactive) | > 100 µM (inactive) | > 100 µM (inactive) | > 100 µM (inactive) | > 100 µM (inactive) | > 100 µM (inactive) | > 100 µM (inactive) | > 100 µM (inactive) | > 100 µM (inactive) | – | – | – | – | –
COc1ccc(/C=N/n2c(C)n[nH]c2=O)cc1 | > 100 µM (inactive) | > 100 | – | > 100 µM (inactive) | – | – | > 100 µM (inactive) | > 100 µM (inactive) | > 100 µM (inactive) | > 100 µM (inactive) | > 100 µM (inactive) | > 100 µM (inactive) | – | > 100 µM (inactive) | 42.8 µM (inactive) | > 100 µM (inactive) | > 100 µM (inactive) | – | > 100 µM (inactive) | > 100 µM (inactive)
CC1=C/C(=N\OCC(=O)O)CC(c2ccc(C(C)C)cc2)C1 (centres undefined) | 63.8 µM (inactive) | 23.2 | 23.2 µM (inactive) | 35.2 µM (inactive) | 29.5 µM (inactive) | > 100 µM (inactive) | 34.4 µM (inactive) | 63.8 µM (inactive) | 60.3 µM (inactive) | > 100 µM (inactive) | – | 32.3 µM (inactive) | – | – | – | 36.8 µM (inactive) | 21.1 µM (inactive) | > 100 µM (inactive) | 65.3 µM (inactive) | –
CSc1ccc2c(cc1=O)C(NC(=O)c1ccccc1)CCc1cc(O)c(O)c(O)c1-2 (centres undefined) | 6.37 µM (inactive) | 18.1 | 17.1 µM (inactive) | 15.6 µM (inactive) | 4.06 µM (inactive) | 24.5 µM (inactive) | 6.73 µM (inactive) | 7.14 µM (inactive) | 30.5 µM (inactive) | > 100 µM (inactive) | 5.69 µM (inactive) | 10.9 µM (inactive) | 52.8 µM (inactive) | 22.3 µM (inactive) | 16.3 µM (inactive) | – | – | – | – | –
O=C1c2c(O)cccc2Cc2cc(CO)cc(O)c21 | 1.34 µM (inactive) | 3.22 | – | 2.31 µM (inactive) | 1.61 µM (inactive) | – | 3.28 µM (inactive) | 2.21 µM (inactive) | 2.92 µM (inactive) | 4.02 µM (inactive) | 2.49 µM (inactive) | 1.99 µM (inactive) | 4.08 µM (inactive) | 4.22 µM (inactive) | 1.07 µM (active) | 2.67 µM (inactive) | 3.59 µM (inactive) | – | 2.96 µM (inactive) | 2.01 µM (inactive)
CC1=C2C(=O)C(C)(C)C=C2C(=O)[C@](C)(O)C12CC2 [DEHYDROILLUDIN M] | 0.484 µM (active) | 0.468 | 0.245 µM (active) | 0.678 µM (active) | > 1 µM (active) | 0.593 µM (active) | > 1 µM (active) | 0.634 µM (active) | > 1 µM (active) | > 1 µM (active) | > 1 µM (active) | > 1 µM (active) | > 1 µM (active) | > 1 µM (active) | 0.766 µM (active) | – | – | – | – | –
